{"source": "patent US5288709A", "about": "“Erythromycin derivatives” (priority 1991, dated 1994)", "key": {"[1]": {"test": "Pharmacokinetic evaluation in dogs after a 10 mg/kg dose", "conditions": "dog, plasma; for half-life: t1/2 (biological half life); for bioavailability: % ABS (percent absorbance), from AUC (absolute bioavailability); for Cmax: Cmax (maximum concentration in blood); for Tmax: Tmax (time to achieve maximum concentration in blood)", "procedure": "Selected compounds of the present invention were formulated as solutions in dilute lactobionic acid at a concentration of 10 or 20 mg/ml. Groups of two or three dogs were given a 10 mg macrolide/kg intravenous bolus or oral dose (by gavage). Plasma samples, obtained at selected time points from 15 minutes to 32 hours after dosing, were assayed using reverse phase HPLC with electrochemical detection (parent drug) and microbiological assay (total microbiological activity). Plasma concentration time curves were subjected to multi exponential curve fitting to determine terminal elimination half life values. Area under the curve (AUC) values, calculated by the trapezoidal method, were used to calculate absolute bioavailability."}, "[2]": {"test_system": "Staphylococcus aureus CMX 553", "test": "In-vitro antimicrobial activity primary screen (agar dilution MIC)", "type": "cell-based", "conditions": "Staphylococcus aureus, CMX553, 24 h, BHI agar, 20-24 h, read-out: MIC", "method_in_brief": "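Agar dilution in Brain Heart Infusion agar with twelve successive compound dilutions; plates inoculated with 1:100 diluted cultures by replicator and incubated 20-24 h at 35-37 °C. MIC is the lowest concentration giving no growth, slight haze or sparse isolated colonies versus compound-free control; erythromycin A plate run as reference.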"}, "[3]": {"test_system": "Micrococcus luteus ATCC 4698", "test": "In-vitro antimicrobial activity primary screen (agar dilution MIC)", "type": "cell-based", "conditions": "ATCC4698, BHI agar, 20-24 h, read-out: MIC", "method_in_brief": "(§1)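 Agar dilution in BHI agar with successive compound dilutions; inoculum 1:100 (1:10 for slow growers such as Streptococcus), applied with a Steers replicator. Incubated 35 37° C for 20-24 hours. MIC is the lowest concentration giving no growth, slight haze or sparse colonies versus the drug-free control.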"}, "[4]": {"test_system": "Micrococcus luteus ATCC 9341", "test": "In-vitro antimicrobial activity primary screen (agar dilution MIC)", "type": "cell-based", "conditions": "ATCC9341, BHI agar, 20-24 h, read-out: MIC", "method_in_brief": "as §1"}, "[5]": {"test_system": "Enterobacter aerogenes ATCC 13048", "test": "In-vitro antimicrobial activity primary screen (agar dilution MIC)", "type": "cell-based", "conditions": "Klebsiella aerogenes, ATCC13048; Enterobacter aerogenes ATCC 13048; BHI agar, 20-24 h; read-out: MIC", "method_in_brief": "as §1"}, "[6]": {"test_system": "Staphylococcus aureus 45 RAR2", "test": "In-vitro antimicrobial activity primary screen (agar dilution MIC)", "type": "cell-based", "conditions": "Staphylococcus aureus, 45RAR2, 24 h, BHI agar, 20-24 h", "method_in_brief": "as §1"}, "[7]": {"test_system": "Staphylococcus aureus A5177", "test": "In-vitro antimicrobial activity primary screen (agar dilution MIC)", "type": "cell-based", "conditions": "Staphylococcus aureus, A5177, 24 h", "method_in_brief": "as §1"}, "[8]": {"test_system": "Providencia stuartii CMX 640", "test": "In-vitro antimicrobial activity primary screen (agar dilution MIC)", "type": "cell-based", "conditions": "CMX640; Providencia stuartii CMX 640; BHI agar, 20-24 h; read-out: MIC", "method_in_brief": "as §1"}, "[9]": {"test_system": "Staphylococcus aureus 45", "test": "In-vitro antimicrobial activity primary screen (agar dilution MIC)", "type": "cell-based", "conditions": "BHI agar, 20-24 h, read-out: MIC", "method_in_brief": "as §1"}, "[10]": {"test_system": "Pseudomonas aeruginosa K799/WT", "test": "In-vitro antimicrobial activity primary screen (agar dilution MIC)", "type": "cell-based", "conditions": "Pseudomonas aeruginosa K799/WT; BHI agar, 20-24 h; read-out: MIC", "method_in_brief": "as §1"}, "[11]": {"test_system": "Streptococcus pyrogenes 2548 INDUC", "test": "In-vitro antimicrobial activity primary screen (agar dilution MIC)", "type": "cell-based", "conditions": "BHI agar, 20-24 h, read-out: MIC", "method_in_brief": "as §1"}, "[12]": {"test_system": "Staphylococcus aureus 642A", "test": "In-vitro antimicrobial activity primary screen (agar dilution MIC)", "type": "cell-based", "conditions": "BHI agar, 20-24 h, read-out: MIC", "method_in_brief": "as §1"}, "[13]": {"test_system": "Acinetobacter SP CMX 669", "test": "In-vitro antimicrobial activity primary screen (agar dilution MIC)", "type": "cell-based", "conditions": "Acinetobacter, SPCMX669, 24 h", "method_in_brief": "as §1"}, "[14]": {"test_system": "Klebsiella pneumoniae ATCC 8045", "test": "In-vitro antimicrobial activity primary screen (agar dilution MIC)", "type": "cell-based", "conditions": "ATCC8045; Klebsiella pneumoniae ATCC 8045; BHI agar, 20-24 h; read-out: MIC", "method_in_brief": "as §1"}, "[15]": {"test_system": "Escherichia coli DC-2", "test": "In-vitro antimicrobial activity primary screen (agar dilution MIC)", "type": "cell-based", "conditions": "DC2; Escherichia coli DC-2; BHI agar, 20-24 h; read-out: MIC", "method_in_brief": "as §1"}, "[16]": {"test_system": "Pseudomonas aeruginosa BMH10", "test": "In-vitro antimicrobial activity primary screen (agar dilution MIC)", "type": "cell-based", "conditions": "Pseudomonas aeruginosa, BMH10, 24 h, BHI agar, 20-24 h", "method_in_brief": "as §1"}, "[17]": {"test_system": "Enterococcus faecium ATCC 8043", "test": "In-vitro antimicrobial activity primary screen (agar dilution MIC)", "type": "cell-based", "conditions": "ATCC8043; Enterococcus faecium ATCC 8043; BHI agar, 20-24 h; read-out: MIC", "method_in_brief": "as §1"}, "[18]": {"test_system": "Escherichia coli JUHL", "test": "In-vitro antimicrobial activity primary screen (agar dilution MIC)", "type": "cell-based", "conditions": "Escherichia coli JUHL; BHI agar, 20-24 h; read-out: MIC", "method_in_brief": "as §1"}, "[19]": {"test_system": "Staphylococcus aureus ATCC 6538P", "test": "In-vitro antimicrobial activity primary screen (agar dilution MIC)", "type": "cell-based", "conditions": "Staphylococcus aureus, ATCC6538P, 24 h, BHI agar, 20-24 h", "method_in_brief": "as §1"}, "[20]": {"test_system": "Pseudomonas cepacia 2961", "test": "In-vitro antimicrobial activity primary screen (agar dilution MIC)", "type": "cell-based", "conditions": "Burkholderia cepacia, BHI agar, 20-24 h, read-out: MIC", "method_in_brief": "as §1"}, "[21]": {"test_system": "Pseudomonas aeruginosa A5007", "test": "In-vitro antimicrobial activity primary screen (agar dilution MIC)", "type": "cell-based", "conditions": "Pseudomonas aeruginosa A5007; BHI agar, 20-24 h; read-out: MIC", "method_in_brief": "as §1"}, "[22]": {"test_system": "Escherichia coli SS", "test": "In-vitro antimicrobial activity primary screen (agar dilution MIC)", "type": "cell-based", "conditions": "BHI agar, 20-24 h, read-out: MIC", "method_in_brief": "as §1"}, "[23]": {"test_system": "Pseudomonas aeruginosa K799/61", "test": "In-vitro antimicrobial activity primary screen (agar dilution MIC)", "type": "cell-based", "conditions": "Pseudomonas aeruginosa K799/61; BHI agar, 20-24 h; read-out: MIC", "method_in_brief": "as §1"}, "[24]": {"test_system": "Staphylococcus aureus NCTC 10649", "test": "In-vitro antimicrobial activity primary screen (agar dilution MIC)", "type": "cell-based", "conditions": "NCTC10649, BHI agar, 20-24 h, read-out: MIC", "method_in_brief": "as §1"}, "[25]": {"test_system": "Streptococcus bovis A5169", "test": "In-vitro antimicrobial activity primary screen (agar dilution MIC)", "type": "cell-based", "conditions": "Streptococcus equinus, BHI agar, 20-24 h, read-out: MIC", "method_in_brief": "as §1"}, "[26]": {"test_system": "Escherichia coli H560", "test": "In-vitro antimicrobial activity primary screen (agar dilution MIC)", "type": "cell-based", "conditions": "Escherichia coli H560; BHI agar, 20-24 h; read-out: MIC", "method_in_brief": "as §1"}, "[27]": {"test_system": "Staphylococcus epidermidis 3519", "test": "In-vitro antimicrobial activity primary screen (agar dilution MIC)", "type": "cell-based", "conditions": "BHI agar, 20-24 h, read-out: MIC", "method_in_brief": "as §1"}, "[28]": {"test_system": "Streptococcus pyrogenes EES61", "test": "In-vitro antimicrobial activity primary screen (agar dilution MIC)", "type": "cell-based", "conditions": "BHI agar, 20-24 h, read-out: MIC", "method_in_brief": "as §1"}, "[29]": {"test_system": "Streptococcus agalactiae CMX 508", "test": "In-vitro antimicrobial activity primary screen (agar dilution MIC)", "type": "cell-based", "conditions": "CMX508, BHI agar, 20-24 h, read-out: MIC", "method_in_brief": "as §1"}, "[30]": {"conditions": "po, oral 10 mg/kg, HPLC (parent drug)"}, "[31]": {"conditions": "po, oral 10 mg/kg, microbiological assay"}}, "data": [{"compound": "CC[C@H]1OC(=O)[C@H](C)[C@@H](O[C@H]2C[C@@](C)(OC)[C@@H](N)[C@H](C)O2)[C@H](C)[C@@H](O[C@@H]2O[C@H](C)C[C@H](N(C)C)[C@H]2O)[C@](C)(O)C[C@@H](C)[C@@H]2O[C@@]1(C)[C@@H](N)[C@H]2C", "note": "[Example 22, (4\"S,9S,11S)-4\",11-Diamino-9-deoxo-4\",11,12-trideoxy-9,12-epoxyerythromycinA]", "values": [{"measurement": "half-life", "setting": "[1]; iv, IV 10 mg/kg, HPLC (parent drug)", "result": 9.3, "unit": "h"}, {"measurement": "half-life", "setting": "[1]; iv, IV 10 mg/kg, microbiological assay", "result": 10.2, "unit": "h"}, {"measurement": "bioavailability", "setting": "[1]; [30]", "result": 43, "unit": "%"}, {"measurement": "bioavailability", "setting": "[1]; [31]", "result": 57, "unit": "%"}, {"measurement": "Cmax", "setting": "[1]; [30]", "result": 3200, "unit": "ng/mL"}, {"measurement": "Cmax", "setting": "[1]; [31]", "result": 3500, "unit": "ng/mL"}, {"measurement": "Tmax", "setting": "[1]; [30]", "result": 0.5, "unit": "h"}, {"measurement": "Tmax", "setting": "[1]; [31]", "result": 0.6, "unit": "h"}, {"measurement": "half-life", "setting": "[1]; [30]", "result": 11.5, "unit": "h"}, {"measurement": "half-life", "setting": "[1]; [31]", "result": 9.8, "unit": "h"}, {"measurement": "MIC", "setting": "[2]", "result": 0.2, "unit": "µg/mL"}, {"measurement": "MIC", "setting": "[3]", "result": 0.05, "unit": "µg/mL"}, {"measurement": "MIC", "setting": "[4]", "result": "≤ 0.005", "unit": "µg/mL"}, {"measurement": "MIC", "setting": "[5]", "result": 6.2, "unit": "µg/mL"}, {"measurement": "MIC", "setting": "[6]", "result": 0.2, "unit": "µg/mL"}, {"measurement": "MIC", "setting": "[7]", "result": 1.56, "unit": "µg/mL"}, {"measurement": "MIC", "setting": "[8]", "result": "> 100", "unit": "µg/mL"}, {"measurement": "MIC", "setting": "[9]", "result": 0.1, "unit": "µg/mL"}, {"measurement": "MIC", "setting": "[10]", "result": 100, "unit": "µg/mL"}, {"measurement": "MIC", "setting": "[11]", "result": 1.56, "unit": "µg/mL"}, {"measurement": "MIC", "setting": "[12]", "result": 0.2, "unit": "µg/mL"}, {"measurement": "MIC", "setting": "[13]", "result": 0.39, "unit": "µg/mL"}, {"measurement": "MIC", "setting": "[14]", "result": 1.56, "unit": "µg/mL"}, {"measurement": "MIC", "setting": "[15]", "result": 3.1, "unit": "µg/mL"}, {"measurement": "MIC", "setting": "[16]", "result": 12.5, "unit": "µg/mL"}, {"measurement": "MIC", "setting": "[17]", "result": 0.05, "unit": "µg/mL"}, {"measurement": "MIC", "setting": "[18]", "result": 1.56, "unit": "µg/mL"}, {"measurement": "MIC", "setting": "[19]", "result": 0.2, "unit": "µg/mL"}, {"measurement": "MIC", "setting": "[20]", "result": "> 100", "unit": "µg/mL"}, {"measurement": "MIC", "setting": "[21]", "result": "> 100", "unit": "µg/mL"}, {"measurement": "MIC", "setting": "[22]", "result": 0.1, "unit": "µg/mL"}, {"measurement": "MIC", "setting": "[23]", "result": 0.39, "unit": "µg/mL"}, {"measurement": "MIC", "setting": "[24]", "result": 0.2, "unit": "µg/mL"}, {"measurement": "MIC", "setting": "[25]", "result": 0.01, "unit": "µg/mL"}, {"measurement": "MIC", "setting": "[26]", "result": 0.78, "unit": "µg/mL"}, {"measurement": "MIC", "setting": "[27]", "result": 0.2, "unit": "µg/mL"}, {"measurement": "MIC", "setting": "[28]", "result": 0.01, "unit": "µg/mL"}, {"measurement": "MIC", "setting": "[29]", "result": 0.01, "unit": "µg/mL"}]}]}
